The record followed here is ChEMBL document CHEMBL3758109, “A novel triazole derivative of betulinic acid induces extrinsic and intrinsic apoptosis in human leukemia HL-60 cells” (Eur J Med Chem, 2016).

The nature of assay [1]: Cytotoxicity against human HL60 cells assessed as cell growth inhibition at 10 uM after 48 hrs by MTT assay. The assay is classed as functional. The following applies: HL-60, 48 h, read-out: GI.
The nature of assay [2]: Cytotoxicity against human HL60 cells assessed as cell growth inhibition after 48 hrs by MTT assay. It counts as functional, cell-based. The following applies: HL-60, 48 h.
A short description of assay [3]: Cytotoxicity against human MIAPaCa2 cells assessed as cell growth inhibition at 10 uM after 48 hrs by MTT assay. The assay is classed as functional. The note with it: MIA PaCa-2, 48 h, read-out: GI.
For assay [4], the system named is A549. Kind of assay: Cytotoxicity against human A549 cells assessed as cell growth inhibition after 48 hrs by MTT assay. The assay is classed as functional, cell-based. The note with it: A549, 48 h.
Assay [5] can be described thus: Cytotoxicity against human MIAPaCa2 cells assessed as cell growth inhibition after 48 hrs by MTT assay. The assay is classed as functional, cell-based. The following applies: MIA PaCa-2, 48 h.
A short description of assay [6]: Cytotoxicity against human PC3 cells assessed as cell growth inhibition at 10 uM after 48 hrs by MTT assay. It counts as functional. The following applies: PC-3, 48 h, read-out: GI.
Assay [7] can be described thus: Cytotoxicity against human PC3 cells assessed as cell growth inhibition after 48 hrs by MTT assay. The assay is classed as functional, cell-based. The note with it: PC-3, 48 h.
Assay [8] deals with A549. Kind of assay: Cytotoxicity against human A549 cells assessed as cell growth inhibition at 10 uM after 48 hrs by MTT assay. The assay is classed as functional. The note with it: A549, 48 h, read-out: GI.

A value given as a limit tells only on which side of the number the result lay.

Take `C=C(C)[C@@H]1CC[C@]2(C(=O)OCc3cn(-c4ccc5c(c4)OCO5)nn3)CC[C@]3(C)[C@H](CC[C@@H]4[C@@]5(C)CC[C@H](O)C(C)(C)[C@@H]5CC[C@]43C)[C@@H]12`: the inhibition of growth at 10 µM was determined as 53% in assay [1], 56% in assay [3], 49% in assay [6] and 53% in the assay with A549 [8]. Moreover, the IC50 in assay [2] was 8 µM; in the assay with A549 [4], 8 µM; in assay [5], 8 µM; in assay [7], 9 µM.
Regarding `C=C(C)[C@@H]1CC[C@]2(C(=O)OCc3cn(-c4ccccc4)nn3)CC[C@]3(C)[C@H](CC[C@@H]4[C@@]5(C)CC[C@H](O)C(C)(C)[C@@H]5CC[C@]43C)[C@@H]12`, the inhibition of growth at 10 µM turned out to be 11% in assay [1], 39% in assay [3], 25% in assay [6] and 27% with A549 [8]. In addition, the IC50 stood at 27 µM in assay [2], 18 µM in the assay with A549 [4], 18 µM in assay [5] and 18 µM in assay [7].
For `C=C(C)[C@@H]1CC[C@]2(C(=O)OCc3cn(-c4ccccc4OC)nn3)CC[C@]3(C)[C@H](CC[C@@H]4[C@@]5(C)CC[C@H](O)C(C)(C)[C@@H]5CC[C@]43C)[C@@H]12`, the inhibition of growth at 10 µM in assay [1] is 34%; in assay [3], 50%; in assay [6], 3%; in the assay on A549 [8] it was 12%. Also, the IC50 in assay [2] was 29 µM; with A549 [4], more than 100 µM; in assay [5] it was 9 µM; in assay [7] it was more than 100 µM.
For `C=C(C)[C@@H]1CC[C@]2(C(=O)OCc3cn(-c4ccc5cc(OC)ccc5c4)nn3)CC[C@]3(C)[C@H](CC[C@@H]4[C@@]5(C)CC[C@H](O)C(C)(C)[C@@H]5CC[C@]43C)[C@@H]12`, the inhibition of growth at 10 µM in assay [1] was determined as 35%; in assay [3], 12%; in assay [6] it was 33%; in the assay with A549 [8], 22%. Also, the IC50 is 29 µM in assay [2], more than 100 µM in the assay on A549 [4], more than 100 µM in assay [5] and 31 µM in assay [7].
Consider `C=C(C)[C@@H]1CC[C@]2(C(=O)OCc3cn(-c4ccc(Br)cc4)nn3)CC[C@]3(C)[C@H](CC[C@@H]4[C@@]5(C)CC[C@H](O)C(C)(C)[C@@H]5CC[C@]43C)[C@@H]12`, for which the inhibition of growth at 10 µM in assay [1] was found to be 39%; in assay [3], 61%; in assay [6] it was 45%; in the assay with A549 [8] it was 54%. The IC50 in assay [2] came to 25 µM; in the assay with A549 [4], 8 µM; in assay [5] it was 7 µM; in assay [7], 25 µM.
`C=C(C)[C@@H]1CC[C@]2(C(=O)OCc3cn(-c4cccc([N+](=O)[O-])c4)nn3)CC[C@]3(C)[C@H](CC[C@@H]4[C@@]5(C)CC[C@H](O)C(C)(C)[C@@H]5CC[C@]43C)[C@@H]12`: the inhibition of growth at 10 µM amounted to 21% in assay [1], 9% in assay [3], 10% in assay [6] and 8% with A549 [8].
With `C=C(C)[C@@H]1CC[C@]2(C(=O)OCc3cn(-c4ccccc4I)nn3)CC[C@]3(C)[C@H](CC[C@@H]4[C@@]5(C)CC[C@H](O)C(C)(C)[C@@H]5CC[C@]43C)[C@@H]12`, the inhibition of growth at 10 µM is 38% in assay [1], 53% in assay [3], 29% in assay [6] and 40% with A549 [8]. Also, the IC50 in assay [2] was 27 µM; in the assay on A549 [4], more than 100 µM; in assay [5] it was 8 µM; in assay [7], more than 100 µM.
As for `C=C(C)[C@@H]1CC[C@]2(C(=O)OCc3cn(-c4cc(C)ccc4C)nn3)CC[C@]3(C)[C@H](CC[C@@H]4[C@@]5(C)CC[C@H](O)C(C)(C)[C@@H]5CC[C@]43C)[C@@H]12`, the inhibition of growth at 10 µM was found to be 51% in assay [1], 38% in assay [3], 44% in assay [6] and 41% with A549 [8].
Consider `C=C(C)[C@@H]1CC[C@]2(C(=O)OCc3cn(-c4ccc(C#N)cc4)nn3)CC[C@]3(C)[C@H](CC[C@@H]4[C@@]5(C)CC[C@H](O)C(C)(C)[C@@H]5CC[C@]43C)[C@@H]12`, for which the inhibition of growth at 10 µM in assay [1] was 55%; in assay [3], 57%; in assay [6], 46%; in the assay with A549 [8], 63%. Besides, the IC50 in assay [2] stood at 8 µM; with A549 [4] it was 7 µM; in assay [5] it was 8 µM; in assay [7], 12 µM.
Take `C=C(C)[C@@H]1CC[C@]2(C(=O)OCc3cn(-c4ccc(OC)c(OC)c4)nn3)CC[C@]3(C)[C@H](CC[C@@H]4[C@@]5(C)CC[C@H](O)C(C)(C)[C@@H]5CC[C@]43C)[C@@H]12`: the inhibition of growth at 10 µM in assay [1] amounted to 7%; in assay [3], 8%; in assay [6], 8%; in the assay with A549 [8], 6%. Further, the IC50 in assay [2] is 8 µM; in the assay with A549 [4], 16 µM; in assay [5] it was 21 µM; in assay [7], 11 µM.
On to `C=C(C)[C@@H]1CC[C@]2(C(=O)OCc3cn(-c4ccc(C)cc4)nn3)CC[C@]3(C)[C@H](CC[C@@H]4[C@@]5(C)CC[C@H](O)C(C)(C)[C@@H]5CC[C@]43C)[C@@H]12`, for which the inhibition of growth at 10 µM came out at 56% in assay [1], 34% in assay [3], 67% in assay [6] and 52% in the assay on A549 [8].
Regarding `C=C(C)[C@@H]1CC[C@]2(C(=O)OCc3cn(-c4cccc(OC)c4OC)nn3)CC[C@]3(C)[C@H](CC[C@@H]4[C@@]5(C)CC[C@H](O)C(C)(C)[C@@H]5CC[C@]43C)[C@@H]12`, the inhibition of growth at 10 µM in assay [1] came to 58%; in assay [3] it was 30%; in assay [6] it was 49%; in the assay with A549 [8], 48%.
As to `C=C(C)[C@@H]1CC[C@]2(C(=O)OCc3cn(-c4cccnc4Cl)nn3)CC[C@]3(C)[C@H](CC[C@@H]4[C@@]5(C)CC[C@H](O)C(C)(C)[C@@H]5CC[C@]43C)[C@@H]12`, the inhibition of growth at 10 µM in assay [1] came to 46%; in assay [3], 55%; in assay [6], 30%; with A549 [8] it was 40%. The IC50 was found to be 18 µM in assay [2], 50 µM in the assay on A549 [4], 8 µM in assay [5] and 69 µM in assay [7].
Regarding `C=C(C)[C@@H]1CC[C@]2(C(=O)OCc3cn(-c4ccc5oc6ccccc6c5c4)nn3)CC[C@]3(C)[C@H](CC[C@@H]4[C@@]5(C)CC[C@H](O)C(C)(C)[C@@H]5CC[C@]43C)[C@@H]12`, the inhibition of growth at 10 µM in assay [1] was 14%; in assay [3] it was 7%; in assay [6] it was 4%; with A549 [8], 5%.
For the molecule `C=C(C)[C@@H]1CC[C@]2(C(=O)OCc3cn(-c4ccc(NC(=O)c5ccccc5)cc4)nn3)CC[C@]3(C)[C@H](CC[C@@H]4[C@@]5(C)CC[C@H](O)C(C)(C)[C@@H]5CC[C@]43C)[C@@H]12`, the inhibition of growth at 10 µM was 0% in assay [1], 0% in assay [3], 21% in assay [6] and 2% in the assay with A549 [8].
`C=C(C)[C@@H]1CC[C@]2(C(=O)OCc3cn(/C=C/c4ccccc4)nn3)CC[C@]3(C)[C@H](CC[C@@H]4[C@@]5(C)CC[C@H](O)C(C)(C)[C@@H]5CC[C@]43C)[C@@H]12`: the inhibition of growth at 10 µM in assay [1] worked out at 20%; in assay [3], 35%; in assay [6], 8%; with A549 [8], 47%.
For the molecule `C=C(C)[C@@H]1CC[C@]2(C(=O)OCc3cn(-c4ccccc4C#N)nn3)CC[C@]3(C)[C@H](CC[C@@H]4[C@@]5(C)CC[C@H](OCc6cn(-c7ccccc7C#N)nn6)C(C)(C)[C@@H]5CC[C@]43C)[C@@H]12`, the inhibition of growth at 10 µM in assay [1] stood at 12%; in assay [3] it was 23%; in assay [6] it was 15%; with A549 [8] it was 0%.
Consider `C=C(C)[C@@H]1CC[C@]2(C(=O)OCc3cn(-c4cccc5c(O)cccc45)nn3)CC[C@]3(C)[C@H](CC[C@@H]4[C@@]5(C)CC[C@H](O)C(C)(C)[C@@H]5CC[C@]43C)[C@@H]12`, for which the inhibition of growth at 10 µM in assay [1] amounted to 26%; in assay [3], 3%; in assay [6], 5%; with A549 [8], 7%.
For `C=C(C)[C@@H]1CC[C@]2(C(=O)OCc3cn(-c4ccc5ccccc5c4)nn3)CC[C@]3(C)[C@H](CC[C@@H]4[C@@]5(C)CC[C@H](O)C(C)(C)[C@@H]5CC[C@]43C)[C@@H]12`, the inhibition of growth at 10 µM in assay [1] is 18%; in assay [3], 6%; in assay [6], 7%; in the assay on A549 [8], 1%.
For the molecule `C=C(C)[C@@H]1CC[C@]2(C(=O)OCc3cn(-c4ccc(-c5ccccc5)cc4)nn3)CC[C@]3(C)[C@H](CC[C@@H]4[C@@]5(C)CC[C@H](O)C(C)(C)[C@@H]5CC[C@]43C)[C@@H]12`, the inhibition of growth at 10 µM in assay [1] was found to be 13%; in assay [3], 10%; in assay [6], 10%; in the assay on A549 [8], 5%.
